Common to all, as to assay type: biochemical
The target of assay [1] is T1, human JAK2 (Homo sapiens, UniProt O60674).
T1 construct: The kinase domain of human JAK2 was amplified from U937mRNA; His tag (from the pFastBac HTc vector) (N); made in house; host or cells: baculovirus; Sf9 for virus, High Five insect cells for production
As to the kind of experiment: JAK2 kinase assay (ELISA or Alphascreen). Particulars: read-out: Jak2 inhibition of enzyme activity. The text has this: The kinase domain of human JAK2 was amplified from U937mRNA using the polymerase chain reaction with the following primers: […]
JAK2 PCR products were doped into the pFastBac HTc expression vector (Gibco) via the Sal I and Not I sites. The JAK2 plasmid was than transformed into competent DH10Bac cells (Gibco), and the recombinant baculovirus produced prepared for transfection into Sf9 insect cells.
(§1) Baculovirus preparations from each of the JAK family members were infected into five liters of High Five cells (Invitrogen) grown in High Five serum free medium (Invitrogen) to a cell density of approximately 1-2×10^6 cells/ml. Cells are infected with virus at a MOI of 0.8-3.0. Cells were harvested and lysed. JAK kinase domains were purified by affinity chromatography on a Probond (Invitrogen) nickel chelate affinity column.
(§2) Kinase assays were performed in a 96 well capture-based ELISA assay or in 384 well Optiplates (Packard) using an Alphascreen Protein Tyrosine Kinase kit. In either case using approximately 1.5 μg of affinity purified PTK domain in the presence of 50 mM HEPES, pH 7.5, 10 mM MgCl2, 150 mM NaCl and 10 μM-1 mM ATP. The biotinylated substrate biotin-EGPWLEEEEEAYGWMDF-NH2 (SEQ ID NO:9) (final concentration 5 μM) was used as substrate. In the ELISA assay tyrosine phosphorylation was quantitated following transfer to an avidin coated ELISA plate using peroxidase-linked anti-phosphotyrosine antibody PY20. In the Alphascreen assay, Alphascreen phosphotyrosine acceptor beads followed by streptavidin donor beads were added under subdued light. The ELISA plates were read on a BMG Fluorostar, the Alphascreen plates were read on a Packard Fusion Alpha. Inhibitors were added to the assays fifteen minutes prior to the addition of ATP. Inhibitors were added in aqueous […] concentrations never exceeding 1%.
Background: ELISA stands for enzyme-linked immunosorbent assay.

Assay [2] deals with T2, human JAK3 (Homo sapiens, UniProt P52333).
T2 construct: The kinase domain of human JAK3 was amplified from U937mRNA; His tag (from the pFastBac HTb vector) (N); made in house; host or cells: baculovirus; Sf9 for virus, High Five insect cells for production
T2 sequence (P52333 822-1111 limits assumed): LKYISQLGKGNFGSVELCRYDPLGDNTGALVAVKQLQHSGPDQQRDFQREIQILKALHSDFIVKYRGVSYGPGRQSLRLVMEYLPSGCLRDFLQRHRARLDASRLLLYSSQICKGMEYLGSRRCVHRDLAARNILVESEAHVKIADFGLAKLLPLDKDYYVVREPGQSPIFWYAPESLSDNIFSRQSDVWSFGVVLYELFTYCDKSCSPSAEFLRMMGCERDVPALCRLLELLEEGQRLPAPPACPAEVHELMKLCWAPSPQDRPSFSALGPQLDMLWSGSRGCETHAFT
As to the kind of experiment: JAK3 kinase assay (ELISA or Alphascreen). To be noted: read-out: Jak3 inhibition of enzyme activity.
Text: The kinase domain of human JAK3 was amplified from U937mRNA using the polymerase chain reaction with the following primers: […]
JAK3 PCR products were cloned into the pFastBac HTb expression vector (Gibco) via the Xho I and Kpn I sites. The JAK3 plasmid was then transformed into competent DH10Bac cells (Gibco), and the recombinant baculovirus produced prepared for transfection into Sf9 insect cells.
as §1, §2

For assay [3], the target named is T3, abl (Homo sapiens, UniProt P00519).
T3 sequence (P00519 242-493 limits assumed): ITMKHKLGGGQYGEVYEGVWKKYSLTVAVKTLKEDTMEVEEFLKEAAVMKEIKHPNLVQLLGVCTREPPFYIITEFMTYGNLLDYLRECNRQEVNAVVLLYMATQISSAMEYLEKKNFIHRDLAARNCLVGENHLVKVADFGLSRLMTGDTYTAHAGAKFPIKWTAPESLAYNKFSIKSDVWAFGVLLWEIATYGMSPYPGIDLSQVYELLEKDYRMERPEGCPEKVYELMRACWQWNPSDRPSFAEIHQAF
The experiment in a line: abl kinase assay (ELISA or Alphascreen). Particulars: read-out: abl inhibition of enzyme activity. As for the experimental part:
as §2

For assay [4], the target named is fes (Homo sapiens, UniProt P07332). The experiment in a line: fes kinase assay (ELISA or Alphascreen). Particulars: read-out: fes inhibition of enzyme activity. As for the experimental part:
as §2

Assay [5] concerns the target T4, fms (Homo sapiens, UniProt P07333).
T4 sequence (P07333 582-910 limits assumed): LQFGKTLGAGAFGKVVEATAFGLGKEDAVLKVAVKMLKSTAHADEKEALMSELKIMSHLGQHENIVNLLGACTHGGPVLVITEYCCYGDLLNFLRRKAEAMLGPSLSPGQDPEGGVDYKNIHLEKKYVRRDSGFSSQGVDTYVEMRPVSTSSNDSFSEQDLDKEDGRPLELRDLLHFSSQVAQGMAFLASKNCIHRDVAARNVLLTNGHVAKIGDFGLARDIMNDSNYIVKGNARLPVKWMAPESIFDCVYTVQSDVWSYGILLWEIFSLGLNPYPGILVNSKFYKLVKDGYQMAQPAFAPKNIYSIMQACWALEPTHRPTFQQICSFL
As to the kind of experiment: fms kinase assay (ELISA or Alphascreen). To be noted: read-out: fms inhibition of enzyme activity. The protocol:
as §2

For assay [6], the target named is T5, Zap70 (Homo sapiens, UniProt P43403).
T5 sequence (P43403 338-600 limits assumed): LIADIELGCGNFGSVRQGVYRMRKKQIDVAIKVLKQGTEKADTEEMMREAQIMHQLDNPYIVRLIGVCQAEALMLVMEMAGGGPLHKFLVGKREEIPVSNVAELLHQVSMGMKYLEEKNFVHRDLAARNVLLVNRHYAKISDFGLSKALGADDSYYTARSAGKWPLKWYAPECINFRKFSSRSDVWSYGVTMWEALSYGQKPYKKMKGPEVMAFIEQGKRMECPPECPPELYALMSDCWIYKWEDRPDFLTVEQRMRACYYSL
The experiment in a line: Zap70 kinase assay (ELISA or Alphascreen). Particulars: read-out: Zap70 inhibition of enzyme activity. The protocol:
as §2

Assay [7] addresses hck (Homo sapiens, UniProt P08631). The experiment in a line: hck kinase assay (ELISA or Alphascreen). Particulars: read-out: hck inhibition of enzyme activity. As for the experimental part: as §2

Molecules are shown by their SMILES.

Sequence of hck (P08631 262-515 limits assumed, species assumed): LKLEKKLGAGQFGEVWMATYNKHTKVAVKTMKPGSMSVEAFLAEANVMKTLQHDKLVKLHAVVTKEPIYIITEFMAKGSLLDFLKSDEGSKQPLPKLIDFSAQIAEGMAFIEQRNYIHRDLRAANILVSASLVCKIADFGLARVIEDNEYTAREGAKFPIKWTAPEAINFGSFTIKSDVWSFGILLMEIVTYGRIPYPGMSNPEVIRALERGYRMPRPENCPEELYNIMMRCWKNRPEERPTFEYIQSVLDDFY
T1 sequence (O60674 849-1124 limits assumed): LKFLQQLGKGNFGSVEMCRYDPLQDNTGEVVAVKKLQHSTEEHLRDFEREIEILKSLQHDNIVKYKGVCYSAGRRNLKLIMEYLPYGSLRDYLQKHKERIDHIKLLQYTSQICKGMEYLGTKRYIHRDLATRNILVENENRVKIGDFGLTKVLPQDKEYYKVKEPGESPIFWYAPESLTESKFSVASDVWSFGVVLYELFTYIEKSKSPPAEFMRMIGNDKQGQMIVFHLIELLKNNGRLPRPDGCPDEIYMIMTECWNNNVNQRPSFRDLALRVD
Sequence of fes (P07332 561-822 limits assumed, species assumed): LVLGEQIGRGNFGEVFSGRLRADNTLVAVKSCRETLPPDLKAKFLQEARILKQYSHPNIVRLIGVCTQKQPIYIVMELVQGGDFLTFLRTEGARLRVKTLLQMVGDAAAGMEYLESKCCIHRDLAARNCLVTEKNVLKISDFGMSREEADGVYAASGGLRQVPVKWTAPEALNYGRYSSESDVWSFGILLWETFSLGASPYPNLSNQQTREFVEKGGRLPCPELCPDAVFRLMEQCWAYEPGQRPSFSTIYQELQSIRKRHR

On to `COc1cc(CNC(=O)c2cncc(-c3ccc(O)cc3)c2)cc(OC)c1`, for which the inhibition at 10 µM in assay [1], in assay [2], in assay [3], in assay [4], in assay [5] and in assay [6] was < 50% in each case.

Turning to `Cc1ccc(F)cc1NC(=O)c1cncc(-c2ccc(O)cc2)c1`, the inhibition (usually the relative decrease from the control value, in per cent) at 10 µM in assay [1] was < 50%; in assay [2], < 50%; in assay [3] it was ≥ 50%; in assay [4] it was < 50%; in assay [5], < 50%; in assay [6], < 50%.

On to `Cc1ccc(CNC(=O)c2cncc(-c3cc(C)c(O)c(C)c3)c2)cc1`, for which the inhibition at 10 µM in assay [1], in assay [2], in assay [3], in assay [4], in assay [5] and in assay [6] was < 50% in each case.

For the molecule `Cc1ccc(C)c(CNC(=O)c2cncc(-c3cc(C)c(O)c(C)c3)c2)c1`, the inhibition at 10 µM in assay [1] was < 50%; in assay [2], < 50%; in assay [3] it was ≥ 50%; in assay [4], ≥ 50%; in assay [5], ≥ 50%; in assay [6], < 50%.

As to `Cc1ccc(F)cc1NC(=O)c1cncc(-c2cc(C)c(O)c(C)c2)c1`, the inhibition at 10 µM was < 50% in assay [1]; < 50% in assay [2]; ≥ 50% in assay [5]; ≥ 50% in assay [7]; < 50% in assay [6].

In the case of `COc1cc(-c2cncc(C(=O)NCc3cccc(F)c3)c2)c(Cl)c(OC)c1OC`, the inhibition at 10 µM in assay [1], in assay [2], in assay [3], in assay [4], in assay [5] and in assay [6] was < 50% in each case.

For `COc1cc(-c2cncc(C(=O)Nc3ccc(N4CCOCC4)cc3)c2)c(Cl)c(OC)c1OC`, the inhibition at 10 µM in assay [1], in assay [2], in assay [3], in assay [4], in assay [5] and in assay [6] was < 50% in each case.

As to `COc1cc(NC(=O)c2cncc(-c3cc(OC)c(OC)c(OC)c3Cl)c2)cc(OC)c1OC`, the inhibition at 10 µM in assay [1], in assay [2], in assay [4], in assay [5], in assay [7] and in assay [6] was < 50% throughout.

With `C[C@@H](NC(=O)c1cncc(-c2ccc3c(c2)OCO3)c1)c1ccccc1`, the inhibition at 10 µM in assay [1], in assay [2], in assay [4], in assay [5], in assay [7] and in assay [6] was < 50% throughout.

Take `C[C@H](NC(=O)c1cncc(-c2ccc3c(c2)OCO3)c1)c1ccccc1`: the inhibition at 10 µM in assay [1], in assay [2], in assay [4], in assay [5], in assay [7] and in assay [6] was < 50% in each case.

On to `COc1ccc(CNC(=O)c2cncc(-c3ccc4c(c3)OCO4)c2)cc1`, for which the inhibition at 10 µM in assay [1], in assay [2], in assay [4], in assay [5], in assay [7] and in assay [6] was < 50% in each case.

As to `COc1ccc(NC(=O)c2cncc(-c3ccc4c(c3)OCO4)c2)c(OC)c1`, the inhibition at 10 µM in assay [1], in assay [2], in assay [4], in assay [5] and in assay [7] was < 50% throughout.

Consider `O=C(NCc1ccc(Cl)c(Cl)c1)c1cncc(-c2cccs2)c1`, for which the inhibition at 10 µM in assay [1], in assay [2], in assay [4], in assay [5], in assay [7] and in assay [6] was < 50% throughout.

For `CC(C)C(CO)NC(=O)c1cncc(-c2cccs2)c1` (stereo not shown), the inhibition at 10 µM in assay [1], in assay [2], in assay [4], in assay [5], in assay [7] and in assay [6] was < 50% throughout.

For the molecule `O=C(NCc1ccncc1)c1cncc(-c2cccs2)c1`, the inhibition at 10 µM in assay [1], in assay [2], in assay [4], in assay [5], in assay [7] and in assay [6] was < 50% throughout.

On to `Cc1ccc(C)c(NC(=O)c2cncc(-c3ccc(F)cc3)c2)c1`, for which the inhibition at 10 µM in assay [1], in assay [2], in assay [4], in assay [5], in assay [7] and in assay [6] was < 50% in each case.

Take `COc1ccc(NC(=O)c2cncc(-c3ccc(F)cc3)c2)c(OC)c1`: the inhibition at 10 µM in assay [1], in assay [2], in assay [3], in assay [4], in assay [5] and in assay [6] was < 50% throughout.

Turning to `COc1cccc(-c2cncc(C(=O)NCc3cccnc3)c2)c1`, the inhibition at 10 µM in assay [1] is < 50%; in assay [2], < 50%; in assay [4] it was < 50%; in assay [5] it was < 50%; in assay [7], < 50%; in assay [6] it was ≥ 50%.

As for `COc1cccc(-c2cncc(C(=O)Nc3ccccc3C)c2)c1`, the inhibition at 10 µM in assay [1], in assay [2], in assay [3], in assay [4], in assay [5] and in assay [6] was < 50% each time.

With `COc1cccc([C@H](C)NC(=O)c2cncc(-c3ccc(O)c(OC)c3)c2)c1`, the inhibition at 10 µM in assay [1], in assay [2], in assay [4], in assay [5], in assay [7] and in assay [6] was < 50% in each case.
